Our source for the inhibition and Ki values is patent US20090325964A1, “Piperazine Metabotropic Glutamate Receptor 5 (MGLUR5) Negative Allosteric Modulators For Anxiety/Depression” (Wyeth, priority 2008, published 2009).

As a reminder, the Ki is a dissociation constant, usually derived from enzyme kinetics or from competition with a known ligand.

Structures are written as SMILES. Where two headings read alike, the source gives them in different places.

For the experiment, the target named is T1, rat mGluR5 receptor (Rattus norvegicus, UniProt P31424).
T1 construct: expressed in transfected cells; host or cells: HEK-293
T1 sequence (P31424 21-1203): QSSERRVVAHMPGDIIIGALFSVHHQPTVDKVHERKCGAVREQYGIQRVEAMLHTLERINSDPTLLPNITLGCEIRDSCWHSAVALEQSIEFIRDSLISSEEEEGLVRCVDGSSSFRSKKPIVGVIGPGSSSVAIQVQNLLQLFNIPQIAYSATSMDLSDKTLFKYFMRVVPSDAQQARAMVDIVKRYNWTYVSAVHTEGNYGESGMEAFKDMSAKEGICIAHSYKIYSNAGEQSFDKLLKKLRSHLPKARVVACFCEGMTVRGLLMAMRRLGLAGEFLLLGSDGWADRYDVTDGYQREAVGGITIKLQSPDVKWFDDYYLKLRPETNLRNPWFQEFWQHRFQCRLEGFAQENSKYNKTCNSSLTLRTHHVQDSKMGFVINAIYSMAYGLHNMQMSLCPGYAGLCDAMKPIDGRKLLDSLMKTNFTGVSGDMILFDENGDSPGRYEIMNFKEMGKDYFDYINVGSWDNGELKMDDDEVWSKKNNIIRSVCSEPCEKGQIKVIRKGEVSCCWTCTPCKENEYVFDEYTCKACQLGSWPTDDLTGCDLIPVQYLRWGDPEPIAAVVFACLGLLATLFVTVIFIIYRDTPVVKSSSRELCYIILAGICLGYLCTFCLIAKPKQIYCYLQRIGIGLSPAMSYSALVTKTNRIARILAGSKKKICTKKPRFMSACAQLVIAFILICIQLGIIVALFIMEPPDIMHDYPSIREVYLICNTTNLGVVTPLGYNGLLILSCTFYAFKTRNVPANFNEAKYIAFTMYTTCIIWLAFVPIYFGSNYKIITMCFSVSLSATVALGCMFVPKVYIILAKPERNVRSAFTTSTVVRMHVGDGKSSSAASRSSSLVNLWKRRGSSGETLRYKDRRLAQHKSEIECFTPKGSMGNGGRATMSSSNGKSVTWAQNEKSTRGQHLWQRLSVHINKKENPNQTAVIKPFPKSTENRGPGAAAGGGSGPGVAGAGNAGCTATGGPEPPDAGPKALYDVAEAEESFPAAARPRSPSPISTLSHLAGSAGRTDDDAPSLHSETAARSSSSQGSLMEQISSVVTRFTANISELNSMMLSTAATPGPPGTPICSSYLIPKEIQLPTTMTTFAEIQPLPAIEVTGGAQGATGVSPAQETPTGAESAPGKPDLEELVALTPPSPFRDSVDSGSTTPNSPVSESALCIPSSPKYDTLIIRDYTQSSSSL
Description: [3H]-MPEP displacement binding assay, HEK-293 cell membranes expressing rat mGluR5. The settings on record: for Ki: read-out: Median Ki. The protocol: MGluR5 expressing HEK-293 cells were scraped off a plate, transferred to centrifuge tubes and washed twice by centrifugation (2000 rpm for 10 minutes, at 4° C.) in buffer (50 mM Tris pH 7.5). The resulting pellets were aliquoted and stored at minus 80° C. On the day of assay, the cells were thawed on ice and re-suspended in buffer. The binding assay was performed in a 96 well microtiter plate in a total volume of […]. Non-specific binding was determined in the presence of 10 μM MPEP. The binding reaction included a final radioligand [^3H]-MPEP concentration of 4 nM and 12-25 μg membrane protein per well. Following a 60 minute incubation at room temperature, the reaction was terminated by the addition of ice cold buffer and rapid filtration through a GF/B filter that had been presoaked for 30 minutes in 0.5% PEI. Compounds were initially tested in a single point assay to determine percent inhibition at 10 μM.
Percent inhibition and Ki values were generated by GraphPad Prism and Excel Fit. IC50 values were calculated using GraphPad by fitting to a 1 or 2 site-binding model.
where [L] is the concentration of free radioligand and Kd is the dissociation constant of radioligand for the receptor.

Setting [1] is: 1 h, single point, @ 10 μm compound, Table 1A, read-out: PCT INHIB (%) @ 10 μm.
Where [2] appears, read: @ 10 μM compound, Biological Activity, Table 2A, read-out: PCT INHIB (%) @ 10 μM.

As for `COc1ccc(C(=O)N2CCN(c3ccccn3)CC2)cc1C#Cc1cccc(N)c1` [Compound 34, 3-({2-methoxy-5-[(4-pyridin-2-ylpiperazin-1-yl)carbonyl]phenyl}ethynyl)aniline], the Ki is 299 nM. For the same compound, the inhibition at 10 µM under setting [1] was 62%. Regarding `COc1ccc(C(=O)N2CCN(c3ccccn3)CC2)cc1C#Cc1cccnc1` [Compound 35, 1-[4-methoxy-3-(pyridin-3-ylethynyl)benzoyl]-4-pyridin-2-ylpiperazine], the Ki worked out at 898 nM. Further, the inhibition at 10 µM under setting [1] worked out at 67%. For `Cc1ccc(C(=O)N2CCN(c3ccccn3)CC2)cc1C#Cc1cccc(N)c1` [Compound 36, 3-({2-methyl-5-[(4-pyridin-2-ylpiperazin-1-yl)carbonyl]phenyl}ethynyl)aniline] the same measures were 474 nM and 79%. Take `COc1ccc(C(=O)N2CCN(c3ccccn3)CC2)cc1C#Cc1ccc(F)c(C)c1` [Compound 37, 1-{3-[(4-fluoro-3-methylphenyl)ethynyl]-4-methoxybenzoyl}-4-pyridin-2-ylpiperazine]: the Ki was determined as 54.7 nM. The inhibition at 10 µM under setting [1] worked out at 74%. `Cc1cccc(C#Cc2cc(C(=O)N3CCN(c4ccccn4)CC3)ccc2C)c1` [Compound 39, 1-{4-methyl-3-[(3-methylphenyl)ethynyl]benzoyl}-4-pyridin-2-ylpiperazine]: the Ki worked out at 57.1 nM. The inhibition at 10 µM under setting [1] is 83%. Regarding `COc1cc(C#Cc2cc(C(=O)N3CCN(c4ccccn4)CC3)ccc2C)cc(OC)c1` [Compound 40, 1-{3-[(3,5-dimethoxyphenyl)ethynyl]-4-methylbenzoyl}-4-pyridin-2-ylpiperazine], the inhibition at 10 µM under setting [1] turned out to be 0%. On the same count and under the same terms, the value for `Cc1cc(C)c(C#Cc2cc(C(=O)N3CCN(c4ccccn4)CC3)ccc2C)cc1C` [Compound 41, 1-{4-methyl-3-[(2,4,5-trimethylphenyl)ethynyl]benzoyl}-4-pyridin-2-ylpiperazine] was 0%. As for `Cc1ccc(C(=O)N2CCN(c3ccccn3)CC2)cc1C#Cc1ccccn1` [Compound 42, 1-[4-methyl-3-(pyridin-2-ylethynyl)benzoyl]-4-pyridin-2-ylpiperazine], the Ki came out at 5.9 nM. Also, the inhibition at 10 µM under setting [1] was determined as 96%. For `COc1ccc(C(=O)N2CCN(c3ccccn3)CC2)cc1C#Cc1cccc(C(F)(F)F)c1` [Compound 43, 1-(4-methoxy-3-{[3-(trifluoromethyl)phenyl]ethynyl}benzoyl)-4-pyridin-2-ylpiperazine], the Ki turned out to be 278 nM. The inhibition at 10 µM under setting [1] worked out at 82%. As for `COc1ccc(C(=O)N2CCN(c3ccccn3)CC2)cc1C#Cc1cc(C(F)(F)F)cc(C(F)(F)F)c1` [Compound 44, 1-(3-{[3,5-bis(trifluoromethyl)phenyl]ethynyl}-4-methoxybenzoyl)-4-pyridin-2-ylpiperazine], the inhibition at 10 µM under setting [1] stood at 0%.

As to `COc1ccc(C(=O)N2CCN(c3ccccn3)CC2)cc1C#Cc1ccncc1` [Compound 45, 1-[4-methoxy-3-(pyridin-4-ylethynyl)benzoyl]-4-pyridin-2-ylpiperazine], the Ki was 990 nM. Also, the inhibition at 10 µM under setting [1] turned out to be 68%. For the compound `Cc1ccc(C(=O)N2CCN(c3ccccn3)CC2)cc1C#Cc1cccc(O)c1` [Compound 46, 3-({2-methyl-5-[(4-pyridin-2-ylpiperazin-1-yl)carbonyl]phenyl}ethynyl)phenol], the Ki was 1310 nM. In addition, the inhibition at 10 µM under setting [1] is 71%. Take `Cc1ccc(C(=O)N2CCN(c3ccccn3)CC2)cc1C#Cc1cc(C(F)(F)F)cc(C(F)(F)F)c1` [Compound 47, 1-(3-{[3,5-bis(trifluoromethyl)phenyl]ethynyl}-4-methylbenzoyl)-4-pyridin-2-ylpiperazine]: the inhibition at 10 µM under setting [1] came to 0%. Still for that read-out and setting: for `Cc1ccc(C(=O)N2CCN(c3ccccn3)CC2)cc1C#Cc1ccncc1` [Compound 48, 1-[4-methyl-3-(pyridin-4-ylethynyl)benzoyl]-4-pyridin-2-ylpiperazine] the value was 49%.

As for `COc1ccc(C(=O)N2CCN(c3cnccn3)CC2)cc1C#CC1=CCCCC1` [Compound 50, 2-{4-[3-(cyclohex-1-en-1-ylethynyl)-4-methoxybenzoyl]piperazin-1-yl}pyrazine], the Ki stood at 171 nM. In addition, the inhibition at 10 µM under setting [1] was found to be 90%.

In the case of `COc1ccc(C(=O)N2CCN(c3cnccn3)CC2)cc1C#CCc1ccccc1` [Compound 51, 2-{4-[4-methoxy-3-(3-phenylprop-1-yn-1-yl)benzoyl]piperazin-1-yl}pyrazine], the Ki was 33.9 nM. Moreover, under setting [1], the inhibition at 10 µM is 92%. For `COc1cccc(C#Cc2cc(C(=O)N3CCN(c4cnccn4)CC3)ccc2OC)c1` [Compound 52, 2-(4-{4-methoxy-3-[(3-methoxyphenyl)ethynyl]benzoyl}piperazin-1-yl)pyrazine], the Ki was found to be 60.1 nM. The inhibition at 10 µM under setting [1] stood at 81%. For `COc1ccc(C(=O)N2CCN(c3cnccn3)CC2)cc1C#Cc1cccc(C)c1` [Compound 53, 2-(4-{4-methoxy-3-[(3-methylphenyl)ethynyl]benzoyl}piperazin-1-yl)pyrazine] the same measures were 8.63 nM and 95%. For the compound `COc1ccc(C(=O)N2CCN(c3cnccn3)CC2)cc1C#Cc1cccc(C(F)(F)F)c1` [Compound 54, 2-[4-(4-methoxy-3-{[3-(trifluoromethyl)phenyl]ethynyl}benzoyl)piperazin-1-yl]pyrazine], the inhibition constant (Ki) turned out to be 109 nM. Also, the inhibition at 10 µM under setting [1] came out at 96%. On to `Cc1ccc(C(=O)N2CCN(c3cnccn3)CC2)cc1C#CC1=CCCCC1` [Compound 56, 2-{4-[3-(cyclohex-1-en-1-ylethynyl)-4-methylbenzoyl]piperazin-1-yl}pyrazine], for which the Ki came out at 1890 nM. Besides, the inhibition at 10 µM under setting [1] came to 70%. Taken in the same sequence, the figures for `Cc1ccc(C(=O)N2CCN(c3cnccn3)CC2)cc1C#CCc1ccccc1` [Compound 57, 2-{4-[4-methyl-3-(3-phenylprop-1-yn-1-yl)benzoyl]piperazin-1-yl}pyrazine] were 363 nM and 87%.

Take `COc1cccc(C#Cc2cc(C(=O)N3CCN(c4cnccn4)CC3)ccc2C)c1` [Compound 58, 2-(4-{3-[(3-methoxyphenyl)ethynyl]-4-methylbenzoyl}piperazin-1-yl)pyrazine]: the Ki was 322 nM. In addition, under setting [1], the inhibition at 10 µM stood at 93%.

For the compound `Cc1cccc(C#Cc2cc(C(=O)N3CCN(c4cnccn4)CC3)ccc2C)c1` [Compound 59, 2-(4-{4-methyl-3-[(3-methylphenyl)ethynyl]benzoyl}piperazin-1-yl)pyrazine], the Ki amounted to 62.5 nM. Moreover, the inhibition at 10 µM under setting [1] came out at 100%. As for `Cc1ccc(C(=O)N2CCN(c3cnccn3)CC2)cc1C#Cc1cccc(C(F)(F)F)c1` [Compound 60, 2-[4-(4-methyl-3-{[3-(trifluoromethyl)phenyl]ethynyl}benzoyl)piperazin-1-yl]pyrazine], the Ki is 749 nM. In addition, the inhibition at 10 µM under setting [1] was 85%. On to `COc1ccc(C(=O)N2CCN(c3cnccn3)CC2)cc1C#Cc1cccc(F)c1` [Compound 61, 2-(4-{3-[(3-fluorophenyl)ethynyl]-4-methoxybenzoyl}piperazin-1-yl)pyrazine], for which the Ki was 21.7 nM. The same measure, in the same setting: for `Cc1ccc(C(=O)N2CCN(c3cnccn3)CC2)cc1C#Cc1cccc(F)c1` [Compound 62, 2-(4-{3-[(3-fluorophenyl)ethynyl]-4-methylbenzoyl}piperazin-1-yl)pyrazine] the value was 121 nM; for `COc1ccc(C(=O)N2CCN(c3ccccn3)CC2)cc1C#Cc1cccc(F)c1` [Compound 63, 1-{3-[(3-fluorophenyl)ethynyl]-4-methoxybenzoyl}-4-pyridin-2-ylpiperazine], 7.34 nM; for `Cc1ccc(C(=O)N2CCN(c3ccccn3)CC2)cc1C#Cc1cccc(F)c1` [Compound 64, 1-{3-[(3-fluorophenyl)ethynyl]-4-methylbenzoyl}-4-pyridin-2-ylpiperazine], 131 nM. With `COc1ccc(C(=O)N2CCN(c3cnccn3)CC2)cc1C#Cc1cccc(Cl)c1` [Compound 65, 2-(4-{3-[(3-chlorophenyl)ethynyl]-4-methoxybenzoyl}piperazin-1-yl)pyrazine], the Ki worked out at 2.11 nM. Take `COc1ccc(C(=O)N2CCN(c3cnccn3)CC2)cc1C#Cc1ccccn1` [Compound 66, 2-{4-[4-methoxy-3-(pyridin-2-ylethynyl)benzoyl]piperazin-1-yl}pyrazine]: the Ki stood at 21.2 nM.

For the compound `Cc1ccc(C(=O)N2CCN(c3cnccn3)CC2)cc1C#Cc1cccc(Cl)c1` [Compound 67, 2-(4-{3-[(3-chlorophenyl)ethynyl]-4-methylbenzoyl}piperazin-1-yl)pyrazine], the Ki is 49.1 nM. Same read-out and setting: for `Cc1ccc(C(=O)N2CCN(c3cnccn3)CC2)cc1C#Cc1ccccn1` [Compound 68, 2-{4-[4-methyl-3-(pyridin-2-ylethynyl)benzoyl]piperazin-1-yl}pyrazine] the value was 8.84 nM. `CN1CCN(C(=O)c2cccc(C#Cc3ccccc3)c2)CC1` [Compound 70, 1-methyl-4-[3-(phenylethynyl)benzoyl]piperazine]: the inhibition at 10 µM under setting [2] turned out to be 0%. Still for that read-out and setting: the value for `COc1ccc(N2CCN(C(=O)c3cccc(C#Cc4ccccc4)c3)CC2)cc1` [Compound 71, 1-(4-methoxyphenyl)-4-[3-(phenylethynyl)benzoyl]piperazine] was 40%.
